One compound from patent EP0462831B1, “Bicyclic pyran derivatives and their use as inhibitors of 5-lipoxygenase” (ZENECA LIMITED, priority 1990, dated 1991) can be followed below.

Experiment [1] has as its target T1, 5-LO (Homo sapiens, UniProt P09917).
T1 construct: incubating a test compound with heparinised human blood, prior to challenge with the calcium ionophore A23187; endogenous in cells; host or cells: blood cells in heparinised human whole blood
T1 sequence (P09917 1-674): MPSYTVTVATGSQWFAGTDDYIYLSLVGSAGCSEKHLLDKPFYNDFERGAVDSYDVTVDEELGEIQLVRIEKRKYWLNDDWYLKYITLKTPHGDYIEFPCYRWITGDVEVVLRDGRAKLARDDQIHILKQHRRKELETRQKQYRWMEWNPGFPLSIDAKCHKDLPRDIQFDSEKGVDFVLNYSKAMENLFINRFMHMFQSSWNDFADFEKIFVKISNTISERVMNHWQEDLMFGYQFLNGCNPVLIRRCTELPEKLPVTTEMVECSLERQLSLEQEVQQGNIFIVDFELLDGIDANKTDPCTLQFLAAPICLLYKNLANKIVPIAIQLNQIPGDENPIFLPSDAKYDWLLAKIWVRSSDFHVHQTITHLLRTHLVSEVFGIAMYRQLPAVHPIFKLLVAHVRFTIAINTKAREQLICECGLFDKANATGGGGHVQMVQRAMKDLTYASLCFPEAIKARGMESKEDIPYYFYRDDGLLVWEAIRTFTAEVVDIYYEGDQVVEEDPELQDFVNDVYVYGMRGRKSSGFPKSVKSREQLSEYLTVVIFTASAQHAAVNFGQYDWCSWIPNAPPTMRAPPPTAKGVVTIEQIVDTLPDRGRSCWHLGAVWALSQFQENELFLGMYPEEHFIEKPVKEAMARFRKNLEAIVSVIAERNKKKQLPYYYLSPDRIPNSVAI
As to the kind of experiment: Test b): heparinised human blood challenged with calcium ionophore A23187, radioimmunoassay of LTB₄. Conditions: A23187 challenge, read-out: IC₅₀ (LTB₄). It is filed as cell-based. On the procedure:
As stated previously, the novel compounds of the formula I are inhibitors of the enzyme 5-LO. […] This test provides a measure of the intrinsic inhibitory properties of a test compound against soluble 5-LO in an extracellular environment. • b) An in vitro assay system involving incubating a test compound with heparinised human blood, prior to challenge with the calcium ionophore A23187 and then indirectly measuring the inhibitory effects on 5-LO by assaying the amount of LTB₄ using specific radioimmunoassays described by Carey and Forder (F. Carey and R.A. Forder, Prostaglandins, Leukotrienes Med., 1986, 22, 57; Prostaglandins, 1984, 28, 666; Brit. J. Pharmacol. 1985, 84, 34P) which involve the use of a protein-LTB₄ conjugate produced using the procedure of Young et alia (Prostaglandins, 1983, 26(4), 605-613). The effects of a test compound on the enzyme cyclooxygenase (which is involved in the alternative metabolic pathway for arachidonic acid and gives rise to prostaglandins, thromboxanes and related metabolites) may be measured at the same time using the specific radioimmunoassay for thromboxane B₂(TxB₂) described by Carey and Forder (see above). This test provides an indication of the effects of a test compound against 5-LO and also cyclooxygenase in the presence of blood cells and proteins. […]

The target of experiment [2] is T2, 5-LO (Rattus norvegicus, UniProt P12527).
T2 construct: liberation of LTB₄ induced by zymosan within an air pouch generated within the subcutaneous tissue of the back of male rats; from tissue; host or cells: subcutaneous air pouch of male rats (in vivo)
T2 sequence (P12527 1-673): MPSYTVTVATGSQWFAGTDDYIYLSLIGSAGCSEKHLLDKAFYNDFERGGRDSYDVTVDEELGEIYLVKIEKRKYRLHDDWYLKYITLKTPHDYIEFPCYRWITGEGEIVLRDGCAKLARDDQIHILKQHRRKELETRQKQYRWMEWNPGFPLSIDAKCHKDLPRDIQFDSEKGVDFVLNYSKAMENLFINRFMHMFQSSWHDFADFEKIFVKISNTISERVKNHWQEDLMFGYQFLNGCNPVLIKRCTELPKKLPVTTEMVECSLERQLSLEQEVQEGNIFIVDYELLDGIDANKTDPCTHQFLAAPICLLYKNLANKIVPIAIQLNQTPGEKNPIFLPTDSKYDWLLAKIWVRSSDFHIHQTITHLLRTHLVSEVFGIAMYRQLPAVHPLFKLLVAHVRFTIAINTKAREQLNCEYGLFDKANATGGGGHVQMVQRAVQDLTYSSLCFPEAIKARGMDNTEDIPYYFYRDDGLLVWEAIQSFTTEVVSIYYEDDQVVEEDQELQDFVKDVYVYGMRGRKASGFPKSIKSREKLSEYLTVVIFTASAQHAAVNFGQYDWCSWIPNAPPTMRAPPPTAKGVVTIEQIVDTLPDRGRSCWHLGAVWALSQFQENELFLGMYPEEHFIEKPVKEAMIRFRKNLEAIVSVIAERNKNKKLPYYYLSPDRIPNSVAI
As to the kind of experiment: Test g): zymosan-induced liberation of LTB₄ in a subcutaneous air pouch. It is filed as in vivo, rats. Conditions: oral, 3 hours, read-out: oral ED₅₀(LTB₄).

Structures are written as SMILES.

Take `COC1(c2cccc(Sc3ccc4c(c3)n(C)c(=O)n4C)c2)CCOCC1` [Example 1, 4-[3-(1,3-dimethyl-2-oxo-2,3-dihydrobenzimidazol-5-ylthio)phenyl]-4-methoxy-tetrahydropyran]: the IC50 in experiment [1] stood at 50 nM. In addition, the ED50 in experiment [2] was < 2 mg/kg.
